Laboratory results as given in US20060263238A1, “Decontamination of biological microbes using quaternary ammonium surfactants at elevated temperatures” (priority 2005, published 2006).

Columns and labels:
B. globigii spores [1] = assay: Spore decontamination followed immediately by dilution and plating (CFU titer); assay type: cell-based, Bacillus globigii; conditions: for reduction of spores: 1% surfactant in water, >10^7 spores/ml, apparently independent of pH; for sporicidal (bacterial) activity: in the presence of moderate applied heat
Procedure: In the examples, below, three representative quaternary ammonium surfactants were tested for decontamination of Bacillus spores. The three exemplified quaternary ammonium surfactants are hexadecyltrimethylammonium chloride, dicocodimethylammonium chloride, and alkyldimethylbenzylammonium chloride. All three quaternary ammonium surfactants were dissolved in water and tested over a pH range. Testing occurred with and without applied heat. All experiments were performed with at least 3-4 replicates with many experiments reproduced numerous times.
(§1) Bacillus spores were suspended in the appropriate solvent at a concentration of 2 mg spores/ml (approximately 2×10^8 spores/ml). Starting volume of 1.125 ml of spores at 2 mg/ml. 3 or 4 spore aliquots of 50 μl per aliquot were removed. These aliquots were serially diluted in 1×PBS and plated on LB or TSA agar plates. This is a control step that gave the spore titer or colony-forming units (CFUs) at Time=0 minutes (T0). The appropriate decontamination solution (2× concentration) was aliquoted into each of 3 or 4 Eppendorf tubes with 200 ul per tube. Then 200 ul of spores were added and mixed to give a final concentration of 1× decontamination solution and 1 mg spores/ml. The spores in decontamination solution were then mixed and incubated for specific time periods and temperatures. A typical incubation was in a room temperature (25° C.) water bath for 30 (or 60) minutes. There was no agitation during the incubation period in order to mimic real world situations. Aliquots of spores were removed after 30 (or 60) minutes. The aliquots (3 or 4 replicates) were serially diluted in 1×PBS and plated on LB or TSA agar plates. This gave a CFU at Time=30 minutes (T30), which is the titer of live spores after the decontamination test. After removing the aliquots at the 30-minute time point, test (or control) samples were then immediately incubated in a 70° C. water bath for another 30 minutes. The samples were then serially diluted and plated on to LB or TSA agar plates to determine the titer after the 70° C. incubation. The entire dilution series from 0.1 through 0.000001 dilutions were plated. An optional wash assay was employed to confirm that the surfactant was killing spores rather than behaving as a bacterostatic agent. The wash assay included centrifuging and washing spores after decontamination. 100 ul of spores (after decontamination) were added to 200 ul of water and centrifuged at 10,000×g for one minute at room temperature. The supernatant was removed and saved. 10% of the supernatant volume was plated and titered as a wash control, to determine if live spores were being removed in the supernatant. Spore pellets were suspended in 1 ml of water and then pelleted at 10,000×g for one minute at room temperature. The supernatant was removed and saved. Spore pellets were washed again with 1 ml of water. Then spore pellets were suspended, serially diluted and plated. This removed the surfactant prior to plating and confirmed results that were bactericidal rather than bacterostatic.

B. globigii spores [2] = assay: Optional wash assay (surfactant removed by centrifuging and washing spores before plating); assay type: cell-based, Bacillus globigii; conditions: between pH5 and pH7 at 70° C.; for reduction of spore decontamination (wash assay): data not shown
Procedure: as §1
An optional wash assay was employed to verify the results (data not shown). […]

[3] = 30 minutes at 25° C. (room temperature)

Compound | reduction of spores (B. globigii spores [1]; [3]) | reduction of spores (B. globigii spores [1]; 30 minutes at 70° C., complete) | sporicidal (bacterial) activity (B. globigii spores [1]) | spores alive out of the original 10-100 million spores (wash assay) (B. globigii spores [2]) | reduction of spore decontamination (wash assay) (B. globigii spores [2])
dicocodimethylammonium chloride | approximately 1 order-of-magnitude | greater than 7 orders-of-magnitude | strong sporicidal (bacterial) activity | less than 10 thousand | over 4 orders-of-magnitude
alkyldimethylbenzylammonium chloride | approximately 1 order-of-magnitude | greater than 7 orders-of-magnitude | strong sporicidal (bacterial) activity | – | –
CCCCCCCCCCCCCCCC[N+](C)(C)C.[Cl-] [hexadecyltrimethylammonium chloride] | approximately 1 order-of-magnitude | greater than 7 orders-of-magnitude | strong sporicidal (bacterial) activity | less than 10 thousand | over 4 orders-of-magnitude
